Results on 1 compound are retold here after patent publication US20090082341A1 (SYNOSIA THERAPEUTICS, priority 2007, published 2009).

Entries after “also recorded” stand apart in the source; their conditions may differ.

For the test, the system named is male Sprague-Dawley rats. Briefly: Differential-reinforcement-of-low-rate-30-seconds (DRL-30) test. The note with it: 3, 10 and 30 mg/kg po, 2 h before test. It counts as in vivo, rat. The source says: The differential-reinforcement-of low-rate (DRL) test is used not only to assess the potential antidepressant properties of drugs but also their anxiolytic potential. Animals are trained to respond to a certain stimulus by pressing a lever. Typical antidepressants, such as TCAs, increase the time between responses, thereby decreasing the response rate. They also increase the number of reinforced responses i.e. repeated pressing of the lever at least 30 seconds after the initial pressing of the lever. Opposite effects are observed with atypical antidepressants such as nomifensine and with benzodiazepine-like anxiolytics.
The method follows that described by Richards J B, Seiden L S. A quantitative interresponse-time analysis of DRL performance differentiates similar effects of the antidepressant desipramine and the novel anxiolytic gepirone. J Exp Anal Behav. 1991; 56:173-192. Stephens D N, Voet B. Differential effects of anxiolytic and non-anxiolytic benzodiazepine receptor ligands on performance of a differential reinforcement of low rate (DRL) schedule. Behav Pharmacol. 1994; 5:4-14. Typical antidepressants increase the inter-response times, therefore decreasing the rate of responding. They also increase the number of reinforcements. Opposite effects are observed with benzodiazepine-like anxiolytics or with atypical antidepressants.
Male adult Sprague-Dawley rats (Charles River, France) weighing approximately 350 g were used. The animals were housed one per cage in Macrolon Type 3 cages (810 cm^2) with sawdust bedding and wood shavings. Animals had free access to tap water and restricted access (15 g per day) to standard laboratory chow (Ratte Alleinfutter, extrudat No 3436; Provimikliba Kaiseraugst, Switzerland). The animal quarters were maintained on a 12:12 hr light-dark cycle with light onset at 6 a.m. Room temperature (22±2° C.) and humidity (55-65%) were kept constant. The experimental procedures used received prior approval from the City of Basel Cantonal Animal Protection Committee based on adherence to federal and local regulations on animal maintenance and testing. […]

Consider `COc1ccc(N2CCOCC2)c2sc(NC(=O)N3CCC(C)(O)CC3)nc12` [4-hydroxy-4-methyl-piperidine-1-carboxylic acid (4-methoxy-7-morpholin-4-yl-benzothiazol-2-yl)-amide], for which the “mean inter-response time (time between responses)” value is listed as “decreased”; the “number of reinforcements (reinforced responses)” value is given as “tended to decrease”; the “total number of responses” value was “dose-dependent increase; also recorded: significantly and dose-dependently increased”.
